Measurements reported in patent US8309558B2, “Compounds for the treatment of hepatitis C” (Bristol-Myers Squibb Company, priority 2008, dated 2012).
pEC50, pIC50: −log10 of the molar value. Where two headings read alike, the source gives them in different places.

Legend:
[1] = target: T1, HCV NS5B RdRp genotype 1b (Hepatitis C virus genotype 1b, UniProt Q9WMX2); assay: Standard HCV NS5B RdRp enzyme assay; format: biochemical; conditions: HCV NS5B RdRp genotype 1b, read-out: IC50
T1 construct: The protein was expressed with an 18 amino acid C-terminal truncation to enhance the solubility; made in house; host or cells: E. coli BL21(DE3), pET21a vector
Description: HCV NS5B RdRp cloning, expression, and purification. The cDNA encoding the NS5B protein of HCV, genotype 1b, was cloned into the pET21a expression vector. The protein was expressed with an 18 amino acid C-terminal truncation to enhance the solubility. The E. coli competent cell line BL21(DE3) was used for expression of the protein. Cultures were grown at 37° C. for ˜4 hours until the cultures reached an optical density of 2.0 at 600 nm. The cultures were cooled to 20° C. and induced with 1 mM IPTG. Fresh ampicillin was added to a final concentration of 50 μg/ml and the cells were grown overnight at 20° C.
Cell pellets (3 L) were lysed for purification to yield 15-24 mgs of purified NS5B. The lysis buffer consisted of 20 mM Tris-HCl, pH 7.4, 500 mM NaCl, 0.5% triton X-100, 1 mM DTT, 1 mM EDTA, 20% glycerol, 0.5 mg/ml lysozyme, 10 mM MgCl2, 15 ug/ml deoxyribonuclease I, and Complete TM protease inhibitor tablets (Roche). After addition of the lysis buffer, frozen cell pellets were resuspended using a tissue homogenizer. To reduce the viscosity of the sample, aliquots of the lysate were sonicated on ice using a microtip attached to a Branson sonicator. The sonicated lysate was centrifuged at 100,000×g for 1 hr at 4° C. and filtered through a 0.2 μm filter unit (Corning).
The protein was purified using three sequential chromatography steps: Heparin sepharose CL-6B, polyU sepharose 4B, and Hitrap SP sepharose (Pharmacia). The chromatography buffers were identical to the lysis buffer but contained no lysozyme, deoxyribonuclease I, MgC12 or protease inhibitor and the NaCl concentration of the buffer was adjusted according to the requirements for charging the protein onto the column. Each column was eluted with a NaCl gradient which varied in length from 5-50 column volumes depending on the column type. After the final chromatography step, the resulting purity of the enzyme is >90% based on SDS-PAGE analysis. The enzyme was aliquoted and stored at −80° C.
Standard HCV NS5B RdRp enzyme assay. HCV RdRp genotype 1b assays were run in a final volume of 60 μl in 96 well plates (Costar 3912). The assay buffer composed of 20 mM Hepes, pH 7.5, 2.5 mM KCl, 2.5 mM MgCl2, 1 mM DTT, 1.6 U RNAse inhibitor (Promega N2515), 0.1 mg/ml BSA (Promega R3961), and 2% glycerol. All compounds were serially diluted (3-fold) in DMSO and diluted further in water such that the final concentration of DMSO in the assay was 2%. HCV RdRp genotype 1b enzyme was used at a final concentration of 28 nM. A polyA template was used at 6 nM, and a biotinylated oligo-dT12 primer was used at 180 nM final concentration. Template was obtained commercially (Amersham 27-4110). Biotinylated primer was prepared by Sigma Genosys. 3H-UTP was used at 0.6 μCi (0.29 μM total UTP). Reactions were initiated by the addition of enzyme, incubated at 30° C. for 60 min, and stopped by adding 25 μl of 50 mM EDTA containing SPA beads (4 μg/μl, Amersham RPNQ 0007). Plates were read on a Packard Top Count NXT after >1 hr incubation at room temperature.
IC50 values for compounds were determined using seven different [I]. IC50 values were calculated from the inhibition using the formula y=A+((B−A)/(1+((C/x)^D))).

[2] = test system: HCV replicon cells; assay: HCV replicon FRET / luciferase assay (96-well plates); format: cell-based; conditions: Hepatitis C virus, HCV replicon, read-out: EC50
Procedure, shortened: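 HCV replicon cells (with or without Renilla luciferase reporter) were plated with titrated compounds at 37 °C. After Alamar blue toxicity reading, cells were lysed in reagent containing 20 μM EDANS/DABCYL NS3 protease FRET peptide and 150 mM NaCl, read kinetically at 340/490 nm, or assayed by Dual-Glo luciferase.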

[3] = untitled table after Table 1b, values without asterisk

T1 sequence (Q9WMX2 2420-2992): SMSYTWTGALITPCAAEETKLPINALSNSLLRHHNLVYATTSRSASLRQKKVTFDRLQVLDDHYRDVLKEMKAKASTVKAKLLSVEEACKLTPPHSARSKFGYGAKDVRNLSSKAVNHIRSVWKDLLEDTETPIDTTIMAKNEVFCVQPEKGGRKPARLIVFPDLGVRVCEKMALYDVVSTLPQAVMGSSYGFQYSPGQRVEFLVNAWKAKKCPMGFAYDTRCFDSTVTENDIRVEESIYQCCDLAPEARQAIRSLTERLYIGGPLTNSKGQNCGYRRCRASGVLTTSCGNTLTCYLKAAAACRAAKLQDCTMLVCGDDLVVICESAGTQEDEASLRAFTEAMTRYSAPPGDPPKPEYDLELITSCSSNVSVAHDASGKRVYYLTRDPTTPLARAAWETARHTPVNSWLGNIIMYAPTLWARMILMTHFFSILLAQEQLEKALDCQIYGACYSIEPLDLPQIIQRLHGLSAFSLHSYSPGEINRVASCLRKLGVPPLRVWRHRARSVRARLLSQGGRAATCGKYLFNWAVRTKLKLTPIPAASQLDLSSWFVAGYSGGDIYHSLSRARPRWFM

Compound	pIC50 ([1]; Table 1a)	pEC50 ([2]; Table 1a)	pIC50 ([1]; Table 1b)	pEC50 ([2]; Table 1b)	other results
CNC(=O)c1c(-c2ccc(F)cc2)oc2ccc(-c3cccc(S(C)(=O)=O)c3)cc12	< 5.00	5.00 to 6.00	–	–	–
CNC(=O)c1c(-c2ccc(F)cc2)oc2ccc(-c3cccc(C(=O)NCc4ccccn4)c3)cc12	> 6.60	6.00 to 6.60	–	–	–
CNC(=O)c1c(-c2ccc(F)cc2)oc2ccc(-c3cccc(C(=O)N4CCCC4c4ccccn4)c3)cc12 (centres unmarked)	6.00 to 6.60	6.00 to 6.60	–	–	–
CNC(=O)c1c(-c2ccc(F)cc2)oc2ccc(-c3cc(C(=O)NCC(C)C)ccc3OC(F)(F)F)cc12	–	–	6.00 to 6.60	< 5.00	–
CNC(=O)c1c(-c2ccc(F)cc2)oc2ccc(-c3cc(C(=O)NC4(c5ccn(C)n5)CC4)c(OC)cc3C)cc12	–	–	> 6.60	> 6.60	–
CNC(=O)c1c(-c2ccc(F)cc2)oc2ccc(-c3cccc(S(=O)(=O)NCc4ccccc4)c3)cc12	< 5.00	< 5.00	–	–	–
CNC(=O)c1c(-c2ccc(F)cc2)oc2ccc(-c3cc(C(=O)NCC(C)C)ccc3OCC(N)=O)cc12	–	–	> 6.60	> 6.60	–
CNC(=O)c1c(-c2ccc(F)cc2)oc2ccc(-c3ccc(C(=O)NCCO)cc3)cc12	< 5.00	5.00 to 6.00	–	–	–
CNC(=O)c1c(-c2ccc(F)cc2)oc2ccc(-c3cc(OCCC4CCNCC4)cc(C(=O)NCC(C)C)c3)cc12	–	–	> 6.60	5.00 to 6.00	–
C#CC(C)(C)NC(=O)c1cccc(-c2ccc3oc(-c4ccc(F)cc4)c(C(=O)NC)c3c2)c1	> 6.60	> 6.60	–	–	–
CNC(=O)c1c(-c2ccccc2)oc2ccc(-c3cc(C(=O)NC4(c5nc(-c6ccccn6)no5)CC4)ccc3C)cc12	–	–	> 6.60	> 6.60	–
CNC(=O)c1c(-c2ccc(F)cc2)oc2ccc(-c3cccc(C(=O)NC(C)(C)C(=O)Nc4nncs4)c3)cc12	–	–	> 6.60	> 6.60	–
CNC(=O)c1c(-c2ccc(F)cc2)oc2ccc(-c3cc(C(=O)NCC(C)C)ccc3OCC3CCNC3)cc12 (centres unmarked)	–	–	> 6.60	> 6.60	–
CNC(=O)c1c(-c2ccc(F)cc2)oc2ccc(-c3cc(F)cc(C(=O)NC4(c5ccccn5)CC4)c3)cc12	–	–	> 6.60	> 6.60	–
CNC(=O)c1c(-c2ccc(F)cc2)oc2ccc(-c3cccc(C(=O)NC(C)(C)C(=O)O)c3)cc12	6.00 to 6.60	< 5.00	–	–	–
CNC(=O)c1c(-c2ccc(F)cc2)oc2ccc(-c3cccc(C(=O)NC(C)(C)c4ccc(Cl)cc4)c3)cc12	–	–	> 6.60	> 6.60	–
C=CCOC(=O)[C@H](C)NC(=O)c1cccc(-c2ccc3oc(-c4ccc(F)cc4)c(C(=O)NC)c3c2)c1	> 6.60	< 5.00	–	–	–
CNC(=O)c1c(-c2ccc(F)cc2)oc2ccc(-c3cccc(C(=O)O)c3)cc12	5.00 to 6.00	< 5.00	–	–	–
CNC(=O)c1c(-c2ccc(F)cc2)oc2ccc(-c3cccc(C(=O)N[C@@H](C)C(=O)NC)c3)cc12	6.00 to 6.60	5.00 to 6.00	–	–	–
CNC(=O)c1c(-c2ccc(F)cc2)oc2ccc(-c3cc(C(=O)NCC(C)C)ccc3OCC(C)O)cc12 (centres unmarked)	–	–	> 6.60	> 6.60	–
CNC(=O)c1c(-c2ccc(F)cc2)oc2ccc(-c3cc(C(=O)NCC(C)C)ccc3OCCOC)cc12	–	–	6.00 to 6.60	> 6.60	–
CNC(=O)c1c(-c2ccc(F)cc2)oc2ccc(-c3cc(C(=O)NC4(c5ccccc5)CC4)ccc3OC)cc12 [drawing 604]	–	–	–	–	pIC50 ([1]; untitled table after Table 1b): 8.00; pEC50 [2, 3]: 8.75
CNC(=O)c1c(-c2ccc(F)cc2)oc2ccc(-c3cccc(C(=O)NC(C)(C)c4ccccc4)c3)c(N)c12	> 6.60	> 6.60	–	–	–

Compound	pIC50 ([1]; Table 1a)	pEC50 ([2]; Table 1a)	pIC50 ([1]; Table 1b)	pEC50 ([2]; Table 1b)	other results
CNC(=O)c1c(-c2ccc(F)cc2)oc2ccc(-c3ccc(F)cc3OCc3ccccc3)cc12	< 5.00	5.00 to 6.00	–	–	–
CNC(=O)c1c(-c2ccc(F)cc2)oc2ccc(-c3c(C)ccc(C(=O)O)c3OC)cc12	–	–	5.00 to 6.00	< 5.00	–
CNC(=O)c1c(-c2ccc(F)cc2)oc2ccc(-c3cccc(C(=O)NC(C)(C)CC(C)(C)C)c3)cc12	6.00 to 6.60	> 6.60	–	–	–
CNC(=O)c1c(-c2ccc(F)cc2)oc2ccc(-c3cc(C(=O)NCC(C)C)ccc3OCCC(C)C)cc12	–	–	< 5.00	5.00 to 6.00	–
CNC(=O)c1c(-c2ccc(F)cc2)oc2ccc(-c3cc(C(=O)NC4(c5ccn(C)n5)CC4)ccc3C)cc12	–	–	> 7.70	> 6.60	–
CNC(=O)c1c(-c2ccc(F)cc2)oc2ccc(-c3ccc(-c4cncc(C#N)c4)c(C(=O)NCC(C)C)c3)cc12	–	–	> 6.60	6.00 to 6.60	–
CNC(=O)c1c(-c2ccc(F)cc2)oc2ccc(-c3ccc(NC(=O)OC(C)(C)C)cc3)cc12	< 5.00	< 6.40	–	–	–
CNC(=O)c1c(-c2ccc(F)cc2)oc2ccc(-c3cc(C(=O)NC4(c5cccc(C)c5)CC4)c(OC)cc3C)cc12	–	–	–	–	pIC50 ([1]; Table 1d (class symbols)): 6.60 to 9.00; pEC50 ([2]; 24 h, Table 1d (class symbols)): 6.60 to 9.00
CNC(=O)c1c(-c2ccc(F)cc2)oc2ccc(-c3cc(C(=O)NC4(c5ccccc5)CC4)ccc3C)cc12 [drawing 362]	–	–	> 6.60	> 6.60	–
CNC(=O)c1c(-c2ccc(F)cc2)oc2ccc(-c3cccc(S(=O)(=O)N4CCOCC4)c3)cc12	< 5.00	< 5.00	–	–	–
CNC(=O)c1c(-c2ccc(F)cc2)oc2ccc(-c3cc(C(=O)NC4(c5nnc(-c6ccc(Cl)cc6)[nH]5)CC4)ccc3C)cc12	–	–	6.00 to 6.60	> 6.60	–
CNC(=O)c1c(-c2ccc(F)cc2)oc2ccc(-c3cccc(C(=O)Nc4cccc(OC)c4)c3)cc12	5.00 to 6.00	5.00 to 6.00	–	–	–
CNC(=O)c1c(-c2ccc(F)cc2)oc2ccc(-c3cccc(C(=O)NCc4ccccc4)c3)cc12	> 6.60	> 6.60	–	–	–
CNC(=O)c1c(-c2ccc(F)cc2)oc2ccc(-c3cc(C(=O)NC4(c5ccccc5)CC4)ccc3OCC(N)=O)cc12	–	–	> 6.60	> 6.60	–
CCNC(=O)C(C)(C)NC(=O)c1cccc(-c2ccc3oc(-c4ccc(F)cc4)c(C(=O)NC)c3c2)c1	6.00 to 6.60	6.00 to 6.60	–	–	–
CNC(=O)c1c(-c2ccc(F)cc2)oc2ccc(-c3cc(C(=O)NC4(c5cn(C)cn5)CC4)ccc3C)cc12	–	–	–	–	pIC50 ([1]; Table 1d (class symbols)): > 7.70; pEC50 ([2]; 24 h, Table 1d (class symbols)): 6.60 to 9.00
CNC(=O)c1c(-c2ccc(F)cc2)oc2ccc(-c3cccc(C(=O)Nc4cccc(C(=O)O)c4O)c3)cc12	6.00 to 6.60	< 5.00	–	–	–
CNC(=O)c1c(-c2ccc(F)cc2)oc2ccc(-c3cccc(-c4nc(-c5ccccc5)c[nH]4)c3)cc12	–	–	6.00 to 6.60	> 6.60	–
CNC(=O)c1c(-c2ccc(F)cc2)oc2ccc(-c3cc(C(=O)NCC(C)C)ccc3OCCc3c[nH]c4ccccc34)cc12	–	–	5.00 to 6.00	5.00 to 6.00	–
CCCOc1cc(C(=O)NCC(C)C)cc(-c2ccc3oc(-c4ccc(F)cc4)c(C(=O)NC)c3c2)c1	–	–	< 5.00	5.00 to 6.00	–
CNC(=O)c1c(-c2ccc(F)cc2)oc2ccc(-c3ccc(S(=O)(=O)NC)cc3)cc12	< 5.00	5.00 to 6.00	–	–	–
CNC(=O)c1c(-c2ccc(F)cc2)oc2ccc(-c3ccc(-c4cncc(N)c4)c(C(=O)NCC(C)C)c3)cc12	–	–	> 6.60	6.00 to 6.60	–
CNC(=O)c1c(-c2ccc(F)cc2)oc2ccc(-c3cccc(C(=O)NC4(c5ccccc5)CC4)c3)cc12 [drawing 610]	–	–	–	–	pIC50 ([1]; untitled table after Table 1b): 8.23; pEC50 [2, 3]: 8.45
